# Measured values: patent publication US10307401B2, “Compositions and methods for treatment of prostate cancer” (priority 2016, dated 2019)
# What was measured:
# [1] = Circulation study of ARE-1 in C57BL6/J mice; assay type: in vivo
# Description: (§1) Animal experiments were performed at Caltech under IACUC approval. VCaP and LREX′ cells were engrafted as 1:1 mixtures of 3×10^6 cells in Matrigel (BD Biosciences) into flanks of intact and castrated male SCID mice (Charles River), respectively. LREX′ engrafted mice received 10 mg/kg enz (oral gavage) daily. Once tumors were 100 mm^3 (0.5*l*w*w), ARE-1 was administered subcutaneously to opposing flanks in 20% DMSO:saline. For circulation studies, four C57BL6/J animals were injected subcutaneously with ARE-1 at 30 mg/kg and blood collected retroorbitally. Plasma concentrations of ARE-1 were analyzed by HPLC, area under the curve (AUC) approximated by the linear trapezoidal method, as described (12).
# (§2) Cell culture experiments represent ≥3 independent biological replicates. Sequencing analyses were duplicates for cell culture and quadruplicates for tumor samples. For xenografts, animals were randomly assigned to groups. For circulation experiments, concentrations of ARE-1 were duplicate measurements. Measurements in cell culture, animal, and immunohistochemistry experiments were assessed by Student's t-test.
# [2] = test system: VCaP xenografts; test: VCaP xenografts in intact male SCID mice; assay type: in vivo
# Description: as §1
# [3] = test system: LNCaP/AR cells; test: Cytotoxicity / proliferation in LNCaP/AR cells (WST-1, CellTiter-Glo); assay type: cell-based; details: 72 hours, compared with bicalutamide
# Excerpt: (§3) The LREX′ and LNCaP/AR cell lines were gifts from Charles Sawyers (Memorial Sloan Kettering) and received in 2014 and 2007, respectively. The VCaP cell line was a gift from Kenneth Pienta (University of Michigan Medical School) and received in 2012. Cells were maintained as previously described (5, 10-13), and were used within 10 passages from thawing. Cells were validated to parental cell lines by STR profile at IDEXXX Bioresearch following experimentation and confirmed to be Mycoplasma free. WST-1 assay (Roche) was used to measure cytotoxicity. The CellTiter-Glo assay was also used in some experiments and is described when used. Long-term toxicity in VCaP cells was assayed by cell counting.
# [4] = test system: LREX′ cells; test: Cytotoxicity / proliferation in LREX′ cells (WST-1); assay type: cell-based; details: with or without 1 nM DHT, 100 nM dex, or both
# Excerpt: as §3
# [5] = test system: KLK3 mRNA in LNCaP/AR cells; test: Gene expression analysis (qRT-PCR) in LNCaP/AR cells; assay type: cell-based; details: 10 μM; for agonist activity (KLK3 mRNA): androgen-depleted conditions
# Description: (§4) LNCaP/AR and LREX′ cells were cultured for 72 hours after plating in phenol-red free RPMI 1640 (10% CT-FBS) in six well plates at 40,000 and 50,000 cells/mL, respectively. LNCaP/AR cells were treated with 10 μM ARE-1, bicalutamide (bic), or enzalutamide (enz, Aurum Pharmatech) for an additional 48, 2, and 2 hours, respectively, prior to treatment with 1 nM DHT or ethanol for 16 hours. LREX′ cells were treated with 10 μM ARE-1 for 16 hours prior to induction with 1 nM DHT or 100 nM dexamethasone (dex) for 8 hours. RNA extraction (RNEasy columns, Qiagen), cDNA generation (Transcriptor First Strand cDNA kit, Roche), and qRT-PCR (SYBR Green Master Mix, Applied Biosystems, ABI7300 instrument) were as described (10-12). Expression was normalized to β-glucuronidase.
# [6] = Plasma concentration of ARE-1 in LREX′ tumor bearing SCID mice; assay type: in vivo; details: 2.5 mg/kg, terminal blood samples, linear trapezoidal method
# Description: as §1, §2
# [7] = test system: LREX′ cells; test: RNAseq GSEA (Hallmark pathways) in LREX′ cells; assay type: cell-based, human
# Description: (§5) LREX′ cells were plated at 50,000 cells/mL in 10 cm^2 dishes, treated with or without 10 μM of ARE-1 in fresh media, incubated 16 hours, and induced with 1 nM DHT for 8 hours. Tumor samples were homogenized mechanically. Total RNA was triazol extracted, sequenced (Illumina HiSeq2000), mapped against the human genome (hg19) with Tophat2 using Ensembl GRCh37 gene annotations. Human and mouse reads from tumor samples were parsed with BBSplit and unique reads were mapped. Htseq-count was used for exon alignment and DESeq2 for differential expression. Gene set enrichment analysis (GSEA) was performed on genes with padj<0.05 and fold change≥1.6 for cell samples and padj<0.05 for tumor samples.
# [8] = test system: VCaP cells; test: Cytotoxicity and long-term viability (cell counting) in VCaP cells; assay type: cell-based
# Excerpt: as §3
# [9] = test system: LREX′ tumors; test: RNAseq GSEA of LREX′ tumor expression profiles; assay type: in vivo, mice; details: gene ontology
# Description: as §5, §1
# [10] = test system: KLK3 and HOMER2 expression in LREX′ cells; test: Gene expression analysis (qRT-PCR) of genes co-regulated by AR and GR in LREX′ cells; assay type: cell-based
# Description: as §4
# [11] = test system: LNCaP cells; test: RNAseq GSEA (Hallmark pathways) in LNCaP cells; assay type: cell-based, human; details: LNCaP ARE-1/NT
# [12] = test system: hormone sensitive LNCaP xenografts; details: previously shown, cited from earlier work
# [13] = test system: nascent RNA in LREX′ cells; test: Nascent RNA measurement (5-EU incorporation) in LREX′ cells; assay type: cell-based
# Description: LREX′ cells were plated at 100,000 cells/mL in 96 well plates in RPMI 1640 (20% FBS and 1 μM enz), adhered for 24 hours, dosed with ARE-1, incubated for 48 hours. The Click-iT® RNA Alexa Fluor® 488 HCS kit was used for dye conjugation and incorporation of 5-ethynyl uridine (5-EU) was measured on a Flexstation 3 plate reader.
# LREX′ cells were plated at 100,000 cells/mL in 175 cm^2 flasks, adhered 24 hours, incubated with 10 μM ARE-1 24, 48, and 72 hours, then with 300 μM 5-EU in fresh media. Cells were detached by Accumax or Accutase, and Alexa Fluor® 488 azide dye was conjugated. Cells were passed through 35 μm mesh prior to flow, sorted on a FACSCalibur instrument (Beckman-Dickinson), analyzed using FlowJo.
# [14] = test system: VCaP xenografts; details: 10 mg/kg enzalutamide treatment; cited from earlier work
smiles,measurement,setting,value
CC(=O)N[C@H](CCNC(=O)c1cc(NC(=O)c2cc(NC(=O)c3cc(NC(=O)c4nccn4C)cn3C)cn2C)cn1C)C(=O)Nc1cn(C)c(C(=O)Nc2cc(C(=O)Nc3cc(C(=O)Nc4cc(C(=O)NCCCN(C)CCCNC(=O)c5cccc(C(=O)O)c5)n(C)c4)n(C)c3)n(C)c2)n1 [ARE-1],AUC (plasma),"[1]; 30 mg/kg subcutaneously, C57BL6/J mice, linear trapezoidal method",189.9 µg·h/mL
same,time to recovery from weight loss,"[1]; 30 mg/kg, mice",≤ 5 days
same,visible signs of distress,"[1]; 30 mg/kg, mice",without visible signs of distress
same,weight loss,"[1]; 30 mg/kg, mice",6%
same,toxicity (animal weights),[2]; VCaP tumor bearing animals treated with ARE-1,without significant toxicity
same,reduction of tumor growth compared to vehicle,"[2]; VCaP xenografts, 5 mg/kg ARE-1 subcutaneously three times per week",70%
same,proliferation of LNCaP/AR cells,[3],reduced proliferation of LNCaP/AR cells more than bicalutamide
same,proliferation of LREX′ cells,[4],reduced proliferation
same,agonist activity (KLK3 mRNA),[5],no agonist activity
same,baseline expression of KLK3,[5]; charcoal stripped media,reduced baseline expression of KLK3
same,AUC (plasma),[6],25.9 µg·h/mL
same,NES HALLMARK APICAL JUNCTION,[7]; LREX′ DHT + ARE-1/DHT,−2.198
same,NES HALLMARK DNA REPAIR,[7]; LREX′ DHT + ARE-1/DHT,2.055
same,NES HALLMARK INTERFERON GAMMA RESPONSE,[7]; LREX′ DHT + ARE-1/DHT,2.028
same,NES HALLMARK MITOTIC SPINDLE,[7]; LREX′ DHT + ARE-1/DHT,−2.302
same,NES HALLMARK MYC TARGETS V1,[7]; LREX′ DHT + ARE-1/DHT,2.006
same,NES HALLMARK OXIDATIVE PHOSPHORYLATION,[7]; LREX′ DHT + ARE-1/DHT,2.738
same,NES HALLMARK PROTEIN SECRETION,[7]; LREX′ DHT + ARE-1/DHT,−2.402
same,NES HALLMARK UV RESPONSE UP,[7]; LREX′ DHT + ARE-1/DHT,2.173
same,long-term cell viability in VCaP cells,"[8]; long-term incubation, cell counting, compared with enzalutamide",more potent than enzalutamide and insensitive to GR activation
same,proliferation of VCaP cells,"[8]; with or without 1 nM DHT, 100 nM dex, or both",reduced proliferation
same,Nes ADENYL NUCLEOTIDE BINDING,[9],−4.22
same,Nes CELL PROJECTION ORGANIZATION,[9],−3.813
same,Nes CELLULAR AMIDE METABOLIC PROCESS,[9],4.725
same,Nes CHROMATIN BINDING,[9],−3.786
same,Nes DOUBLE STRANDED DNA BINDING,[9],−4.074
same,Nes MACROMOLECULAR COMPLEX BINDING,[9],−3.726
same,Nes MITOCHONDRIAL ENVELOPE,[9],5.17
same,Nes MITOCHONDRIAL PART,[9],5.946
same,Nes MITOCHONDRION,[9],6.585
same,Nes MITOCHONDRION ORGANIZATION,[9],4.686
same,Nes NUCLEIC ACID BINDING TRANSCRIPTION FACTOR ACTIVITY,[9],−5.598
same,Nes ORGANELLE INNER MEMBRANE,[9],4.922
same,Nes ORGANONITROGEN COMPOUND BIOSYNTHETIC PROCESS,[9],4.815
same,Nes ORGANONITROGEN COMPOUND METABOLIC PROCESS,[9],5.958
same,Nes REGULATION OF TRANSCRIPTION FROM RNA POLYMERASE II PROMOTER,[9],−4.438
same,Nes REGULATORY REGION NUCLEIC ACID BINDING,[9],−4.775
same,Nes RIBOSOME,[9],4.779
same,Nes SEQUENCE SPECIFIC DNA BINDING,[9],−4.99
same,Nes STRUCTURAL CONSTITUENT OF RIBOSOME,[9],4.741
same,Nes ZINC ION BINDING,[9],−3.923
same,reduction of dex induced transcription,"[10]; 100 nM dex, ARE-1 compared with enzalutamide",the opposite was observed with dex induction
same,KLK3 and HOMER2 expression,[10]; 10 μM ARE-1,represses KLK3 and HOMER2 expression
same,NES HALLMARK APOPTOSIS,[11],2.323
same,NES HALLMARK INTERFERON GAMMA RESPONSE,[11],3.06
same,NES HALLMARK P53 PATHWAY,[11],3.749
same,NES HALLMARK TNFA SIGNALING VIA NFKB,[11],3.248
same,host toxicity,[12]; LNCaP xenografts,minimal host toxicity
same,efficacy against LNCaP xenografts,[12],effective against hormone sensitive LNCaP xenografts
same,nascent RNA (5-EU incorporation),[13],reduced nascent RNA in LREX′ cells
"C[C@]12CCC(=O)C[C@@H]1CC[C@@H]1[C@@H]2CC[C@]2(C)[C@@H](O)CC[C@@H]12 [DHT, dihydrotestosterone, reference compound]",NES HALLMARK ANDROGEN RESPONSE,[7]; LREX′ DHT/NT,5.031
same,NES HALLMARK MYC TARGETS V1,[7]; LREX′ DHT/NT,−1.861
same,NES HALLMARK MYC TARGETS V2,[7]; LREX′ DHT/NT,−1.81
same,NES HALLMARK OXIDATIVE PHOSPHORYLATION,[7]; LREX′ DHT/NT,−2.126
same,NES HALLMARK PROTEIN SECRETION,[7]; LREX′ DHT/NT,2.849
same,NES HALLMARK TNFA SIGNALING VIA NFKB,[7]; LREX′ DHT/NT,2.751
same,NES HALLMARK UV RESPONSE DOWN,[7]; LREX′ DHT/NT,2.496
"CNC(=O)c1ccc(N2C(=S)N(c3ccc(C#N)c(C(F)(F)F)c3)C(=O)C2(C)C)cc1F [enzalutamide, reference compound]",response of VCaP xenografts,[14],modest response
same,agonist activity (KLK3 mRNA),[5],no agonist activity
same,reduction of DHT induced transcription,"[10]; 1 nM DHT, enzalutamide compared with ARE-1",more potent than ARE-1 in reducing DHT induced transcription
